From patent publication US9757368B2, “Anti-inflammatory agents” (Resverlogix Corp., priority 2009, dated 2017)

Legend:
hIL-6 mRNA = assay: Quantification of hIL-6 mRNA in LPS-stimulated U937 macrophages (real-time PCR); type: cell-based, human; design: key: Active: an active compound is one that causes a ≧20% inhibition in IL-6 mRNA at a concentration less than or equal to 10 μM; conditions: U937 cells differentiated with PMA, 1 h pretreatment, LPS 1 μg/mL, 3 h; IL-6 mRNA normalised to hCyclophilin; compound ≤10 μM
Protocol: In this example, hIL-6 mRNA in tissue culture cells was quantitated to measure the transcriptional inhibition of hIL-6 when treated with a compound of the invention.
A human leukemic monocytic lymphoma cell line (U937) was plated (3.2×10^5 cells per well) in a 96-well plate in 100 μL RPMI 1640+10% FBS, and differentiated into macrophages with PMA (60 ng/mL) for 3 days prior to the addition of the compound of interest. The cells were pretreated for 1 h with the test compound in DMSO prior to stimulation with lipopolysaccharide from Escherichia coli at 1 μg/mL. The cells were incubated for 3 h before harvest. At the time of harvest, cells were rinsed in 200 μL PBS. Cell lysis solution (70 μL) was added the cells for 10 min, and mRNA was then prepared using the “mRNA Catcher PLUS plate” (Invitrogen), according to the protocol supplied.
(§1) The eluted mRNA isolated was then used in a one-step quantitative real-time PCR reaction, using components of the UltraSense kit together with Applied Biosystems primer-probe mixes. 10 μL of template was amplified with 1.75 μL of IL-6 primer-probe, and 1 μL of hCyclophilin primer probe, and the reaction was carried out in multiplex. Real-time PCR data was analyzed, normalizing the Ct values for hIL-6 to hCyclophilin, prior to determining the fold induction of each unknown sample, relative to the control.

hVCAM-1 mRNA = assay: Quantification of hVCAM-1 mRNA in TNF-α-stimulated HUV-EC-C cells (real-time PCR); type: cell-based, human; design: key: Active: an active compound is one that causes a ≧20% inhibition in VCAM-1 mRNA at a concentration less than or equal to 10 μM; conditions: 1 h pretreatment, TNF-α 10 ng/mL, 24 h, VCAM-1 mRNA normalised to hCyclophilin, compound ≤10 μM
Protocol: In this example, hVCAM-1 mRNA in tissue culture cells was quantitated to measure the transcriptional inhibition of hVCAM when treated with a compound of the invention.
A human umbilical vein endothelial cell line (HUV-EC-C) was plated in a 96-well plate (5.0×10^3 cells/well) in 100 μL EGM complete media and incubated for 24 h prior to the addition of the compound of interest. The cells were pretreated for 1 h with the test compound in DMSO prior to stimulation with tumor necrosis factor-α (10 ng/mL). The cells were incubated for an additional 24 h before harvest. At time of harvest, the cells were rinsed in 200 μL PBS, and cell lysis solution (70 μL) was then added the cells for 10 min. mRNA was then prepared using the “mRNA Catcher PLUS plate” (Invitrogen), according to the protocol supplied.
as §1, with “mRNA” for “mRNA isolated”, “hVCAM-1” for “IL-6”, “hVCAM-1” for “hIL-6”

COc1cc(OC)c2c(=O)[nH]c(-c3ccc4cc(CCO)[nH]c4c3)nc2c1 [Example 58, 2-[2-(2-hydroxyethyl)-1H-indol-6-yl]-5,7-dimethoxy-3H-quinazolin-4-one]
Inhibition of IL-6 expression (hIL-6 mRNA): Active
Inhibition of VCAM-1 expression (hVCAM-1 mRNA): Active

COc1cc(OC)c2c(=O)[nH]c(-c3cc(C)c(OCCNC(C)C)c(C)c3)nc2c1 [Example 44, 2-(4-(2-(isopropylamino)ethoxy)-3,5-dimethylphenyl)-5,7-dimethoxyquinazolin-4(3H)-one]
Inhibition of IL-6 expression (hIL-6 mRNA): Active
Inhibition of VCAM-1 expression (hVCAM-1 mRNA): Active

COc1cc(OC)c2c(=O)[nH]c(-c3cc(C)c(OCC(O)CO)c(C)c3)nc2c1 (stereo not shown) [Example 18, 2-[4-(2,3-Dihydroxy-propoxy)-3,5-dimethyl-phenyl]-5,7-dimethoxy-3H-quinazolin-4-one]
Inhibition of IL-6 expression (hIL-6 mRNA): Active
Inhibition of VCAM-1 expression (hVCAM-1 mRNA): Active

COc1ccc(NC(=O)COc2c(C)cc(-c3nc4cc(OC)cc(OC)c4c(=O)[nH]3)cc2C)cc1 [Example 26, 2-[4-(5,7-Dimethoxy-4-oxo-3,4-dihydro-quinazolin-2-yl)-2,6-dimethyl-phenoxy]-N-(4-methoxy-phenyl)-acetamide]
Inhibition of IL-6 expression (hIL-6 mRNA): Active
Inhibition of VCAM-1 expression (hVCAM-1 mRNA): Active

COc1cc(OCCOCc2ccccc2)cc2nc(-c3cc(C)c(O)c(C)c3)[nH]c(=O)c12 [Example 5, 7-(2-benzyloxy-ethoxy)-2-(4-hydroxy-3,5-dimethyl-phenyl)-5-methoxy-3H-quinazolin-4-one]
Inhibition of IL-6 expression (hIL-6 mRNA): Active
Inhibition of VCAM-1 expression (hVCAM-1 mRNA): Active

Cc1cc(-c2nc3cc(Cl)ccc3c(=O)[nH]2)cc(C)c1OCCO [Example 29, 7-chloro-2-(4-(2-hydroxyethoxy)-3,5-dimethylphenyl)quinazolin-4(3H)-one]
Inhibition of IL-6 expression (hIL-6 mRNA): Active
Inhibition of VCAM-1 expression (hVCAM-1 mRNA): Active

COc1cc(OCCN)cc2nc(-c3cc(C)c(O)c(C)c3)[nH]c(=O)c12 [Example 3, 7-(2-amino-ethoxy)-2-(4-hydroxy-3,5-dimethyl-phenyl)-5-methoxy-3H-quinazolin-4-one]
Inhibition of IL-6 expression (hIL-6 mRNA): Active
Inhibition of VCAM-1 expression (hVCAM-1 mRNA): Active

COc1cc(OC)c2c(=O)[nH]c(-c3cc(C)c(OCCN(C)C(C)=O)c(C)c3)nc2c1 [Example 47, N-(2-(4-(5,7-dimethoxy-4-oxo-3,4-dihydroquinazolin-2-yl)-2,6-dimethylphenoxy)ethyl)-N-methylacetamide]
Inhibition of IL-6 expression (hIL-6 mRNA): Active
Inhibition of VCAM-1 expression (hVCAM-1 mRNA): Active

Cc1cc(-c2nc3cccc(Cl)c3c(=O)[nH]2)cc(C)c1OCCO [Example 32, 5-chloro-2-(4-(2-hydroxyethoxy)-3,5-dimethylphenyl)quinazolin-4(3H)-one]
Inhibition of IL-6 expression (hIL-6 mRNA): Active
Inhibition of VCAM-1 expression (hVCAM-1 mRNA): Active

COc1cc(OC)c2c(=O)[nH]c(-c3ccc(OCCO)cc3)nc2c1 [Example 20, 2-[4-(2-hydroxy-ethoxy)-phenyl]-5,7-dimethoxy-3H-quinazolin-4-one]
Inhibition of IL-6 expression (hIL-6 mRNA): Active
Inhibition of VCAM-1 expression (hVCAM-1 mRNA): Active

COc1cccc2c(=O)[nH]c(-c3cc(C)c(OCCO)c(C)c3)nc12 [Example 31, 2-(4-(2-hydroxyethoxy)-3,5-dimethylphenyl)-8-methoxyquinazolin-4(3H)-one]
Inhibition of IL-6 expression (hIL-6 mRNA): Active
Inhibition of VCAM-1 expression (hVCAM-1 mRNA): Active

Cc1cc(-c2nc3ccc(Nc4ccccn4)cc3c(=O)[nH]2)cc(C)c1O [Example 9, 2-(4-hydroxy-3,5-dimethyl-phenyl)-6-(pyridin-2-ylamino)-3H-quinazolin-4-one]
Inhibition of IL-6 expression (hIL-6 mRNA): Active
Inhibition of VCAM-1 expression (hVCAM-1 mRNA): Active

COc1cc(OC)c2c(=O)[nH]c(-c3cc(C)c(OCCCCO)c(C)c3)nc2c1 [Example 28, 2-[4-(4-hydroxy-butoxy)-3,5-dimethyl-phenyl]-5,7-dimethoxy-3H-quinazolin-4-one]
Inhibition of IL-6 expression (hIL-6 mRNA): Active
Inhibition of VCAM-1 expression (hVCAM-1 mRNA): Active

Cc1cc(-c2nc3cc(F)cc(F)c3c(=O)[nH]2)cc(C)c1OCCO [Example 15, 5,7-difluoro-2-(4-(2-hydroxyethoxy)-3,5-dimethylphenyl)quinazolin-4(3H)-one]
Inhibition of IL-6 expression (hIL-6 mRNA): Active
Inhibition of VCAM-1 expression (hVCAM-1 mRNA): Inactive

CNC(=O)COc1c(C)cc(-c2nc3cc(OC)cc(OC)c3c(=O)[nH]2)cc1C [Example 25, 2-[4-(5,7-dimethoxy-4-oxo-3,4-dihydro-quinazolin-2-yl)-2,6-dimethyl-phenoxy]-N-methyl-acetamide]
Inhibition of IL-6 expression (hIL-6 mRNA): Active
Inhibition of VCAM-1 expression (hVCAM-1 mRNA): Active

COc1cc(OCCOCc2ccccc2)cc2nc(-c3cc(C)c(OCCO)c(C)c3)[nH]c(=O)c12 [Example 23, 7-(2-benzyloxy-ethoxy)-2-[4-(2-hydroxy-ethoxy)-3,5-dimethyl-phenyl]-5-methoxy-3H-quinazolin-4-one]
Inhibition of IL-6 expression (hIL-6 mRNA): Active
Inhibition of VCAM-1 expression (hVCAM-1 mRNA): Active

Cc1cc(-c2nc3ccc(CN4CCN(C)CC4)cc3c(=O)[nH]2)cc(C)c1O [Example 10, 2-(4-hydroxy-3,5-dimethylphenyl)-6-((4-methylpiperazin-1-yl)methyl)quinazolin-4(3H)-one]
Inhibition of IL-6 expression (hIL-6 mRNA): Active
Inhibition of VCAM-1 expression (hVCAM-1 mRNA): Active

CNCCOc1c(C)cc(-c2nc3cc(OC)cc(OC)c3c(=O)[nH]2)cc1C [Example 42, 2-(3,5-dimethyl-4-(2-(methylamino)ethoxy)phenyl)-5,7-dimethoxyquinazolin-4(3H)-one]
Inhibition of IL-6 expression (hIL-6 mRNA): Active
Inhibition of VCAM-1 expression (hVCAM-1 mRNA): Active

COc1cc(OC)c2c(=O)[nH]c(-c3cc(C)c(CNC(C)=O)c(C)c3)nc2c1 [Example 38, N-(4-(5,7-dimethoxy-4-oxo-3,4-dihydroquinazolin-2-yl)-2,6-dimethylbenzyl)acetamide]
Inhibition of IL-6 expression (hIL-6 mRNA): Active
Inhibition of VCAM-1 expression (hVCAM-1 mRNA): Active

Cc1cc(-c2nc3ccc(CN4CCOCC4)cc3c(=O)[nH]2)cc(C)c1OCCO [Example 17, 2-[4-(2-hydroxyethoxy)-3,5-dimethyl-phenyl]-6-morpholin-4-ylmethyl-3H-quinazolin-4-one]
Inhibition of IL-6 expression (hIL-6 mRNA): Active
Inhibition of VCAM-1 expression (hVCAM-1 mRNA): Inactive

COc1cc(OC)c2c(=O)[nH]c(-c3cc(C)c(CNC(C)=O)c(C)c3)nc2n1 [Example 39, N-[4-(5,7-dimethoxy-4-oxo-3,4-dihydro-pyrido[2,3-d]pyrimidin-2-yl)-2,6-dimethyl-benzyl]-acetamide]
Inhibition of IL-6 expression (hIL-6 mRNA): Active
Inhibition of VCAM-1 expression (hVCAM-1 mRNA): Active

COCCOc1cc(OC)c2c(=O)[nH]c(-c3cc(C)c(O)c(C)c3)nc2c1 [Example 4, 2-(4-hydroxy-3,5-dimethyl-phenyl)-5-methoxy-7-(2-methoxy-ethoxy)-3H-quinazolin-4-one]
Inhibition of IL-6 expression (hIL-6 mRNA): Active
Inhibition of VCAM-1 expression (hVCAM-1 mRNA): Active

Cc1cc(-c2nc3ccc(CN4CCN(C)CC4)cc3c(=O)[nH]2)cc(C)c1OCCO [Example 34, 2-(4-(2-hydroxyethoxy)-3,5-dimethylphenyl)-6-((4-methylpiperazin-1-yl)methyl)quinazolin-4(3H)-one]
Inhibition of IL-6 expression (hIL-6 mRNA): Active
Inhibition of VCAM-1 expression (hVCAM-1 mRNA): Active

COc1cc(OC)c2c(=O)[nH]c(-c3ccc(OCCNc4nnc(-c5ccccc5)[nH]4)c(C)c3)nc2c1 [Example 35, 5,7-Dimethoxy-2-{3-methyl-4-[2-(5-phenyl-4H-[1,2,4]triazol-3-ylamino)-ethoxy]-phenyl}-3H-quinazolin-4-one]
Inhibition of IL-6 expression (hIL-6 mRNA): Active
Inhibition of VCAM-1 expression (hVCAM-1 mRNA): Active

COc1cc(OC)c2c(=O)[nH]c(-c3cc(C)c(OCCNc4nc(C)no4)c(C)c3)nc2c1 [Example 36, 2-{3,5-Dimethyl-4-[2-(3-methyl-[1,2,4]oxadiazol-5-ylamino)-ethoxy]-phenyl}-5,7-dimethoxy-3H-quinazolin-4-one]
Inhibition of IL-6 expression (hIL-6 mRNA): Active
Inhibition of VCAM-1 expression (hVCAM-1 mRNA): Active

COc1ccc2c(=O)[nH]c(-c3cc(C)c(OCCO)c(C)c3)nc2c1 [Example 33, 2-(4-(2-hydroxyethoxy)-3,5-dimethylphenyl)-7-methoxyquinazolin-4(3H)-one]
Inhibition of IL-6 expression (hIL-6 mRNA): Active
Inhibition of VCAM-1 expression (hVCAM-1 mRNA): Active
